Source: US8420657B2 (Novartis AG, priority 2008, dated 2013)

Key:
[1] = test system: JAK1/JAK2-dependent nuclear translocation of STAT1-GFP in HT1080 fibrosarcoma cells; experiment: STAT1 nuclear translocation assay (Cellomics), IFN-γ stimulated HT1080 STAT1-GFP cells; assay type: cell-based; conditions: Homo sapiens, HT-1080, STAT1 translocation pathway
How it was run: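 HT1080 cells stably expressing STAT1-GFP, pre-treated 30 min with compound (10 μM–0.003 μM, 0.1% DMSO), then stimulated 2 h with 100 ng/ml IFN-γ, fixed and Hoechst-stained. Nuclear-cytoplasmic GFP differential imaged over ≥1000 cells/well, normalised to unstimulated and DMSO-stimulated wells for IC50.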

GST-JAK2(808-1132) = target: T1, GST-JAK2(808-1132) (Homo sapiens, UniProt O60674); experiment: JAK2 kinase assay (Caliper mobility shift, LabChip 3000); assay type: biochemical
T1 construct: GST-JAK2(808-1132); purchased Invitrogen (Carlsbad, USA) #4288
How it was run: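 Recombinant GST-JAK2(808-1132) kinase domain with FITC-labelled JAK3tide peptide substrate and ATP; 60 min at 30 °C, EDTA stop. Substrate/product ratio read by microfluidic mobility shift; compounds at 8 final concentrations, 10 to 0.003 μM.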

T1 sequence (O60674 808-1132): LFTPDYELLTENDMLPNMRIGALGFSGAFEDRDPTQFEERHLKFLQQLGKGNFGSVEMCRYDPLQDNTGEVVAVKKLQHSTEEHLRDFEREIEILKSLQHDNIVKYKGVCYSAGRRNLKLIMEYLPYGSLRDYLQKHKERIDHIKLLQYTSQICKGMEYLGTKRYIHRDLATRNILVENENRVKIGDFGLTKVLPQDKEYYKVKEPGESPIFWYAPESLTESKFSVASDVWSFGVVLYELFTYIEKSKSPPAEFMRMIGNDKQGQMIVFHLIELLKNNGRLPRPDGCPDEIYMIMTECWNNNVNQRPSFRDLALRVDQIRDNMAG

Row | IC50 [1] [nM] | IC50 (GST-JAK2(808-1132)) [nM] | Compound
1 | 20.5 | < 3 | CN1CCN(c2cccc(Nc3ncc4ccn(-c5ccc(S(C)(=O)=O)cc5)c4n3)c2)CC1 [Example 17, [7-(4-Methanesulfonyl-phenyl)-7H-pyrrolo[2,3-d]pyrimidin-2-yl]-[3-(4-methyl-piperazin-1-yl)-phenyl]-amine]
2 | 33 | < 3 | CCOc1ccc(Nc2ncc3ccn(-c4ccc(CN5CCOCC5)cc4)c3n2)cc1OCC [Example 147, (3,4-Diethoxy-phenyl)-[7-(4-morpholin-4-ylmethyl-phenyl)-7H-pyrrolo[2,3-d]pyrimidin-2-yl]-amine]
3 | 352 | 5.3 | O=C(c1ccc(Nc2ncc3ccn(-c4cc(F)c(CN5CCOCC5)c(F)c4)c3n2)cn1)N1CCOCC1 [Example 195, {5-[7-(3,5-Difluoro-4-morpholin-4-ylmethyl-phenyl)-7H-pyrrolo[2,3-d]pyrimidin-2-ylamino]-pyridin-2-yl}-morpholin-4-yl-methanone]
4 | 235 | 5.5 | CN1CCN(Cc2ccc(Nc3ncc4ccn(-c5cc(F)c(CN6CCOCC6)c(F)c5)c4n3)cc2)CC1 [Example 173, [7-(3,5-Difluoro-4-morpholin-4-ylmethyl-phenyl)-7H-pyrrolo[2,3-d]pyrimidin-2-yl]-[4-(4-methyl-piperazin-1-ylmethyl)-phenyl]-amine]
5 | 232 | < 17 | Cc1ccc(Nc2ncc3ccn(-c4cc(F)c(CN5CCOCC5)c(F)c4)c3n2)cc1C [Example 289, [7-(3,5-Difluoro-4-morpholin-4-ylmethyl-phenyl)-7H-pyrrolo[2,3-d]pyrimidin-2-yl]-(3,4-dimethyl-phenyl)-amine]
6 | 630 | 11 | Cc1ccc(Nc2ncc3ccn(-c4ccc(C[S+](C)[O-])cc4)c3n2)cc1 (stereo not shown) [Example 139, [7-(4-Methanesulfinylmethyl-phenyl)-7H-pyrrolo[2,3-d]pyrimidin-2-yl]-p-tolyl-amine]
7 | 530 | 3.9 | Cc1ccc(Nc2ncc3ccn(-c4ccc(S(C)(=O)=O)cc4)c3n2)cc1CN1CCNCC1 [Example 333, [7-(4-Methanesulfonyl-phenyl)-7H-pyrrolo[2,3-d]pyrimidin-2-yl]-(4-methyl-3-piperazin-1-ylmethyl-phenyl)-amine]
8 | 18300 | 3.8 | CS(=O)(=O)c1ccc(-n2ccc3cnc(Nc4ccc(C(=O)N5CCNCC5)cc4)nc32)cc1 [Example 87, {4-[7-(4-Methanesulfonyl-phenyl)-7H-pyrrolo[2,3-d]pyrimidin-2-ylamino]-phenyl}-piperazin-1-yl-methanone]
9 | 355 | 4.3 | Cc1cncc(Nc2ncc3ccn(-c4cc(F)c(C(=O)N5CCOCC5)c(F)c4)c3n2)c1 [Example 242, {2,6-Difluoro-4-[2-(5-methyl-pyridin-3-ylamino)-pyrrolo[2,3-d]pyrimidin-7-yl]-phenyl}-morpholin-4-yl-methanone]
10 | 258 | 3.2 | CC(C)Oc1ccc(Nc2ncc3ccn(-c4ccc(C(=O)N5CCOCC5)cc4)c3n2)cc1 [Example 231, {4-[2-(4-Isopropoxy-phenylamino)-pyrrolo[2,3-d]pyrimidin-7-yl]-phenyl}-morpholin-4-yl-methanone]
11 | 32 | < 3 | COc1cc(Nc2ncc3ccn(-c4ccc(S(=O)(=O)NC(C)(C)C)cc4)c3n2)cc(OC)c1OC [Example 8, N-tert-Butyl-4-[2-(3,4,5-trimethoxy-phenylamino)-pyrrolo[2,3-d]pyrimidin-7-yl]-benzenesulfonamide]
12 | 175 | 11 | CS(=O)(=O)c1ccc(-n2ccc3cnc(Nc4ccc(N5CCNC6(CC6)C5)nc4)nc32)cc1 [Example 272, [6-(4,7-Diaza-spiro[2.5]oct-7-yl)-pyridin-3-yl]-[7-(4-methanesulfonyl-phenyl)-7H-pyrrolo[2,3-d]pyrimidin-2-yl]-amine]
13 | 198 | 4.5 | O=C(c1cccc(Nc2ncc3ccn(-c4cc(F)c(CN5CCOCC5)c(F)c4)c3n2)c1)N1CCOCC1 [Example 202, {3-[7-(3 5-Difluoro-4-morpholin-4-ylmethyl-phenyl)-7H-pyrrolo[2,3-d]pyrimidin-2-ylamino]-phenyl}-morpholin-4-yl-methanone]
14 | 99.5 | 5.4 | CN(C)CCN(C)C(=O)c1ccc(Nc2ncc3ccn(-c4ccc(S(C)(=O)=O)cc4)c3n2)cc1 [Example 65, N-(2-Dimethylamino-ethyl)-4-[7-(4-methanesulfonyl-phenyl)-7H-pyrrolo[2,3-d]pyrimidin-2-ylamino]-N-methyl-benzamide]
15 | 2480 | 20.5 | COc1ccc(Nc2ncc3ccn(-c4ccc(S(C)(=O)=O)cc4)c3n2)cn1 [Example 230, [7-(4-Methanesulfonyl-phenyl)-7H-pyrrolo[2,3-d]pyrimidin-2-yl]-(6-methoxy-pyridin-3-yl)-amine]
16 | 115 | 6.9 | C[C@@H]1CN(Cc2ccc(Nc3ncc4ccn(-c5cc(F)c(C(=O)N6CCOCC6)c(F)c5)c4n3)cc2)C[C@H](C)N1 [Example 255, (4-{2-[4-(cis-3,5-Dimethyl-piperazin-1-ylmethyl)-phenylamino]-pyrrolo[2,3-d]pyrimidin-7-yl}-2,6-difluoro-phenyl)-morpholin-4-yl-methanone]
17 | 120 | < 3 | O=S1(=O)CCN(Cc2c(F)cc(-n3ccc4cnc(Nc5ccccc5)nc43)cc2F)CC1 [Example 180, {7-[4-(1,1-Dioxido-thiomorpholin-4-ylmethyl)-3,5-difluoro-phenyl]-7H-pyrrolo[2,3-d]pyrimidin-2-yl}-phenyl-amine]
18 | 222 | < 3 | CN1CCN(Cc2cccc(Nc3ncc4ccn(-c5cc(F)c(CN6CCOCC6)c(F)c5)c4n3)c2)CC1 [Example 199, [7-(3,5-Difluoro-4-morpholin-4-ylmethyl-phenyl)-7H-pyrrolo[2,3-d]pyrimidin-2-yl]-[3-(4-methyl-piperazin-1-ylmethyl)-phenyl]-amine]
19 | 730 | 5.2 | COc1cc(Nc2ncc3ccn(-c4ccc(C(=O)N5CCOCC5)cc4)c3n2)ccc1C [Example 240, {4-[2-(3-Methoxy-4-methyl-phenylamino)-pyrrolo[2,3-d]pyrimidin-7-yl]-phenyl}-morpholin-4-yl-methanone]
20 | 191 | < 3 | CN1CCN(Cc2cccc(Nc3ncc4ccn(-c5ccc(S(C)(=O)=O)cc5)c4n3)c2)CC1 [Example 93]
21 | 120 | < 3 | Cc1cc(Nc2ncc3ccn(-c4ccc(CN5CCS(=O)(=O)CC5)c(F)c4)c3n2)ccc1F [Example 125, {7-[4-(1,1-Dioxido-thiomorpholin-4-ylmethyl)-3-fluoro-phenyl]-7H-pyrrolo[2,3-d]pyrimidin-2-yl}-(4-fluoro-3-methyl-phenyl)-amine]
22 | 185 | 6.1 | CN1CCN(Cc2ccc(Nc3ncc4ccn(-c5ccc(C(=O)N6CCOCC6)c(F)c5)c4n3)cc2)CC1=O [Example 337, 4-(4-{7-[3-Fluoro-4-(morpholine-4-carbonyl)-phenyl]-7H-pyrrolo[2,3-d]pyrimidin-2-ylamino}-benzyl)-1-methyl-piperazin-2-one]
23 | 415 | < 3 | Cc1ccc(Nc2ncc3ccn(-c4ccc(C(=O)N5CCOCC5)c(C)c4)c3n2)cc1C [Example 294, {4-[2-(3,4-Dimethyl-phenylamino)-pyrrolo[2,3-d]pyrimidin-7-yl]-2-methyl-phenyl}-morpholin-4-yl-methanone]
24 | 90 | < 3 | Fc1cc(-n2ccc3cnc(Nc4ccc(CN5CCOCC5)cc4)nc32)cc(F)c1CN1CCOCC1 [Example 197, [7-(3,5-Difluoro-4-morpholin-4-ylmethyl-phenyl)-7H-pyrrolo[2,3-d]pyrimidin-2-yl]-(4-morpholin-4-ylmethyl-phenyl)-amine]
25 | 3680 | 120 | Cc1ccc(Nc2ncc3ccn(-c4cc(F)c(CN5CCOCC5)c(F)c4)c3n2)cc1Cl [Example 128, (3-Chloro-4-methyl-phenyl)-[7-(3,5-difluoro-4-morpholin-4-ylmethyl-phenyl)-7H-pyrrolo[2,3-d]pyrimidin-2-yl]-amine]
26 | 10.9 | < 3 | CCN(CC)CCOc1cccc(Nc2ncc3ccn(-c4ccc(S(C)(=O)=O)cc4)c3n2)c1 [Example 36, [3-(2-Diethylamino-ethoxy)-phenyl]-[7-(4-methanesulfonyl-phenyl)-7H-pyrrolo[2,3-d]pyrimidin-2-yl]-amine]
27 | 205 | 3.6 | Cc1ccc(Nc2ncc3ccn(-c4ccc(C(=O)N5CCOCC5)c(F)c4)c3n2)cc1CN1CCNCC1 [Example 336, {2-Fluoro-4-[2-(4-methyl-3-piperazin-1-ylmethyl-phenylamino)-pyrrolo[2,3-d]pyrimidin-7-yl]-phenyl}-morpholin-4-yl-methanone]

Row | Compound | IC50 [1] [nM] | IC50 (GST-JAK2(808-1132)) [nM]
28 | Cc1ccc(Nc2ncc3cc(C)n(-c4ccc(CC(=O)N5CCN(C)CC5)cc4)c3n2)cc1C [Example 161, 2-{4-[2-(3,4-Dimethyl-phenylamino)-6-methyl-pyrrolo[2,3-d]pyrimidin-7-yl]-phenyl}-1-(4-methyl-piperazin-1-yl)-ethanone] | 9350 | 870
29 | CC(C)Oc1ccc(Nc2ncc3ccn(-c4ccc(CC(=O)N5CCN(C)CC5)cc4)c3n2)cc1 [Example 101, 2-{4-[2-(4-Isopropoxy-phenylamino)-pyrrolo[2,3-d]pyrimidin-7-yl]-phenyl}-1-(4-methyl-piperazin-1-yl)-ethanone] | 180 | < 3
